{"source": "patent US8361968B2", "about": "(Takeda Pharmaceutical Company Limited, priority 2002, dated 2013)", "note": "Numbered stars: 1 amine (or outer) side, 2 acyl side, 3 side chain; on linkers, the order of the positions; unused ones are H or OH. Square brackets hold non-standard residues; d marks the D form. Ends that are not written are not given here. Peptide text beside a SMILES is read from it. * marks the point of attachment. X10 = NC(=O)C[C@@H](C(=O)[*:2])N(C[C@@H](N)Cc1ccc(O)cc1)[*:1]; Phe(2-Cl) = N[C@@H](Cc1ccccc1Cl)C(=O)O; 2Nal = N[C@@H](Cc1ccc2ccccc2c1)C(=O)O; Arg(Me) = CNC(=N)NCCC[C@H](N)C(=O)O; Fmoc = O=C(OCC1c2ccccc2-c2ccccc21)*; d3Pal = N[C@H](Cc1cccnc1)C(=O)O; d4Pal = N[C@H](Cc1ccncc1)C(=O)O; Cha = N[C@@H](CC1CCCCC1)C(=O)O; azaGly = NNC(=O)O", "data": [{"target": "hOT7T175 (Homo sapiens, UniProt Q969F8, L364H)", "sequence (Q969F8 whole entry L364H)": "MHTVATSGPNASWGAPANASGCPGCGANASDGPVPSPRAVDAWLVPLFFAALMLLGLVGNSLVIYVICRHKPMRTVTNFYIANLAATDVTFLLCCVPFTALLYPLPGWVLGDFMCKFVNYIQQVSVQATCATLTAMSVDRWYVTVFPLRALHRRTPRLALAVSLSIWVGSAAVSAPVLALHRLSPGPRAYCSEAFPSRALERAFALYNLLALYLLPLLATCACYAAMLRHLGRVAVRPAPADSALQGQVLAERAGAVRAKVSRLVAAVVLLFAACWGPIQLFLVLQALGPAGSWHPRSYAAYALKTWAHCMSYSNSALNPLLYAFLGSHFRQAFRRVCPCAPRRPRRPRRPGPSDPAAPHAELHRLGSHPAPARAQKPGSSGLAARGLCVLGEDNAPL", "test": "Intracellular Ca ion level-increasing activity using FLIPR in hOT7T175/CHO", "assay_type": "cell-based", "design": "expressed in transfected cells; host or cells: CHO/dhfr- cells, obtained from ATCC", "details": "relative, Metastin (1-54) = 1", "description": "Assay for Intracellular Ca Ion Level-Increasing Activity Using Flipr\nIn accordance with the method described in JPA 2000-312590, the intracellular Ca ion level-increasing activity was measured using FLIPR.\nThe stable expression cell line hOT7T175 was acquired by transduction of expression plasmid pAK-rOT175 for animal cells into CHO/dhff cells, using CellPhect Transfection Kit (Amersham Pharmacia Biotech, Inc.). First, 240 μL of Buffer A (attached to CellPhect Transfection Kit) was added to 9.6 μg of plasmid DNA dissolved in 240 μl of distilled water, followed by stirring. After settling the mixture for 10 minutes, 480 μL of Buffer B (attached to CellPhect Transfection Kit) was added to the mixture, which was vigorously stirred to form DNA-containing liposomes. Then, 4×10^5 CHO/dhff cells (obtained from ATCC) were inoculated on a 60 mm Petri dish. […] After culturing the cells at 37° C. for 6 hours in 5% carbon dioxide gas, the cells were washed twice with serum-free Ham's F-12 medium and 3 ml of 15% glycerol was added to the cells in the Petri dish to treat for 2 minutes. The cells were again washed twice with serum-free Ham's F-12 medium followed by incubation in Ham's F-12 medium supplemented with 10% fetal bovine serum at 37° C. for 15 hours in 5% carbon dioxide gas. The cells were dispersed by trypsin treatment and recovered from the Petri dish. The recovered cells were inoculated on a 6-well plate in 1.25×10^4 cells/well and incubation was initiated at 37° C. in Dulbecco's modified Eagle medium (DMEM) medium (Nissui Seiyaku Co., Ltd.) containing 10% dialyzed fetal bovine serum (JRH BIOSCIENCES, Inc.) under 5% carbon dioxide gas. […] The medium was exchanged on Days 1 and 2 to remove the cells died.\nThe intracellular Ca ion level-increasing activity of the synthetic peptide in hOT7T175/CHO was determined using FLIPR (Molecular Devices, Inc.).\nhOT7T175/CHO was subcultured in DMEM supplemented with 10% dialyzed fetal bovine serum (hereinafter abbreviated as dFBS) and provided for the experiment (hereinafter abbreviated as 10% dFBS/DMEM). The hOT7T175/CHO was suspended in 10% dFBS-DMEM in 15×10^4 cells/ml. The suspension was inoculated on a 96-well plate for FLIPR (Black Plate Clear Bottom, Coster, Inc.) at 200 μL each (3.0×10^4 cells/200 μL/well), followed by incubation at 37° C. overnight in a 5% CO2 incubator (hereinafter simply referred to as the cell plate). Then, 21 ml of HANKS/HBSS (9.8 g of HANKS, 0.35 g of sodium hydrogencarbonate, 20 ml of 1M HEPES; after adjusting the pH to 7.4 with 1N sodium hydroxide, the mixture was sterilized by filtration), 210 μl of 250 mM Probenecid and […] of fetal bovine serum (FBS) were mixed (HANKS/HBSS-Probenecid-FBS).\nFurthermore, 2 vials of Fluo3-AM (50 μug/vial) were dissolved in 21 μL of dimethylsulfoxide and 21 μL of 20% Pluronic acid. The resulting solution was added to and mixed with 10 ml of HANKS/HBSS-Probenecid-FBS described above. After the culture medium was removed, the mixture was dispensed onto the cell plate in 100 μL each/well, followed by incubation at 37° C. for an hour in a 5% CO2 incubator (pigment loading). The peptide was dissolved in dimethylsulfoxide in 1×10^−3 M. The peptide solution was diluted with HANKS/HBSS containing 2.5 mM Probenecid, 0.2% BSA and 0.1% CHAPS.", "values": [{"compound": "CNC(=N)NCCC[C@H](NC(=O)[C@H](CC(C)C)NC(=O)NNC(=O)[C@H](Cc1ccccc1)NC(=O)[C@H](CO)NC(=O)[C@H](CC(N)=O)NC(=O)[C@H](Cc1ccccc1Cl)NC(=O)[C@H](CC(N)=O)NC(=O)[C@H](N)Cc1ccc(O)cc1)C(=O)N[C@@H](Cc1ccccc1)C(N)=O", "note": "[Compound No. 247, D-Tyr-Asn-Phe(2Cl)-Asn-Ser-Phe-AzaGly-Leu-Arg(Me)-Phe-NH2] (H-[dY]N[Phe(2-Cl)]NSF[azaGly]L[Arg(Me)]F-NH2)", "Specific Activity (intracellular Ca ion level-increasing activity)": 1}, {"compound": "CC(C)C[C@H](NC(=O)NNC(=O)[C@H](Cc1ccccc1)NC(=O)[C@H](CO)NC(=O)[C@H](CC(N)=O)NC(=O)[C@H](Cc1c[nH]c2ccccc12)NC(=O)[C@H](CC(N)=O)NC(=O)[C@@H](N)Cc1ccc(O)cc1)C(=O)N[C@@H](CCCNC(=N)N)C(=O)N[C@@H](Cc1ccccc1)C(N)=O", "note": "[Compound No. 176, Tyr-Asn-Trp-Asn-Ser-Phe-AzaGly-Leu-Arg-Phe-NH2]", "Specific Activity (intracellular Ca ion level-increasing activity)": 5}, {"compound": "2-Aminoethyl-Gly-D-Tyr-Asn-Trp-Asn-Ser-Phe-Gly-Leu-Arg(Me)-Phe-NH2 [Compound No. 375]", "Specific Activity (intracellular Ca ion level-increasing activity)": 2}, {"compound": "D-Tyr-Asn-Trp-Asn-Ser-Phe-Ala-Leu-Arg(Me)-Phe-NH2 ([dY]NWNSFAL[Arg(Me)]F-NH2; N-terminus assumed; SMILES CNC(=N)NCCC[C@H](NC(=O)[C@H](CC(C)C)NC(=O)[C@H](C)NC(=O)[C@H](Cc1ccccc1)NC(=O)[C@H](CO)NC(=O)[C@H](CC(N)=O)NC(=O)[C@H](Cc1c[nH]c2ccccc12)NC(=O)[C@H](CC(N)=O)NC(=O)[C@H](N)Cc1ccc(O)cc1)C(=O)N[C@@H](Cc1ccccc1)C(N)=O) [Compound No. 173]", "Specific Activity (intracellular Ca ion level-increasing activity)": 1}, {"compound": "CNC(=N)NCCC[C@H](NC(=O)[C@H](CC(C)C)NC(=O)NNC(=O)[C@H](Cc1ccccc1)NC(=O)[C@H](CO)NC(=O)[C@H](CC(N)=O)NC(=O)[C@@H](NC(=O)[C@@H](CC(N)=O)NC(=O)[C@H](N)Cc1ccc(O)cc1)[C@@H](C)O)C(=O)N[C@@H](Cc1ccccc1)C(N)=O", "note": "[Compound No. 284, D-Tyr-D-Asn-Thr-Asn-Ser-Phe-AzaGly-Leu-Arg(Me)-Phe-NH2] (H-[dY][dN]TNSF[azaGly]L[Arg(Me)]F-NH2)", "Specific Activity (intracellular Ca ion level-increasing activity)": 1}, {"compound": "CNC(=N)NCCC[C@H](NC(=O)[C@H](CC(C)C)NC(=O)NNC(=O)[C@H](Cc1ccccc1)NC(=O)[C@H](CO)NC(=O)[C@H](CC(N)=O)NC(=O)[C@H](Cc1c[nH]c2ccccc12)NC(=O)[C@H](N)Cc1cccnc1)C(=O)N[C@@H](Cc1ccccc1)C(N)=O", "note": "[Compound No. 289, D-Pya(3)-Trp-Asn-Ser-Phe-AzaGly-Leu-Arg(Me)-Phe-NH2] (H-[d3Pal]WNSF[azaGly]L[Arg(Me)]F-NH2)", "Specific Activity (intracellular Ca ion level-increasing activity)": 1}, {"compound": "CNC(=N)NCCC[C@H](NC(=O)[C@H](CC(C)C)NC(=O)NNC(=O)[C@H](Cc1ccccc1)NC(=O)[C@H](CO)NC(=O)[C@H](CC(N)=O)NC(=O)[C@H](Cc1ccc2ccccc2c1)NC(=O)[C@H](N)Cc1ccc(O)cc1)C(=O)N[C@@H](Cc1ccccc1)C(N)=O", "note": "[Compound No. 255, D-Tyr-Nal(2)-Asn-Ser-Phe-AzaGly-Leu-Arg(Me)-Phe-NH2] (H-[dY][2Nal]NSF[azaGly]L[Arg(Me)]F-NH2)", "Specific Activity (intracellular Ca ion level-increasing activity)": 1}, {"compound": "CNC(=N)NCCC[C@H](NC(=O)[C@H](CC(C)C)NC(=O)NNC(=O)[C@H](Cc1ccccc1)NC(=O)[C@H](CO)NC(=O)[C@H](CC(N)=O)NC(=O)[C@H](Cc1ccccc1)NC(=O)[C@H](N)Cc1cccnc1)C(=O)N[C@@H](Cc1ccccc1)C(N)=O", "note": "[Compound No. 256, D-Pya(3)-Phe-Asn-Ser-Phe-AzaGly-Leu-Arg(Me)-Phe-NH2] (H-[d3Pal]FNSF[azaGly]L[Arg(Me)]F-NH2)", "Specific Activity (intracellular Ca ion level-increasing activity)": 1}, {"compound": "CC(=O)NC(=N)NCCC[C@H](NC(=O)[C@H](CC(C)C)NC(=O)CNC(=O)[C@H](Cc1ccccc1)NC(=O)[C@H](CO)NC(=O)[C@H](CC(N)=O)NC(=O)[C@H](Cc1c[nH]c2ccccc12)NC(=O)[C@H](CC(N)=O)NC(=O)[C@H](N)Cc1ccc(O)cc1)C(=O)N[C@@H](Cc1ccccc1)C(N)=O", "note": "[Compound No. 194]", "Specific Activity (intracellular Ca ion level-increasing activity)": 1}, {"compound": "CNC(=N)NCCC[C@H](NC(=O)[C@H](CC(C)C)NC(=O)NNC(=O)[C@H](Cc1ccccc1)NC(=O)[C@H](CO)NC(=O)[C@H](CC(N)=O)NC(=O)[C@H](CC1CCCCC1)NC(=O)[C@@H](CC(N)=O)NC(=O)[C@H](N)Cc1ccncc1)C(=O)N[C@@H](Cc1ccccc1)C(N)=O", "note": "[Compound No. 306, D-Pya(4)-D-Asn-Cha-Asn-Ser-Phe-AzaGly-Leu-Arg(Me)-Phe-NH2] (H-[d4Pal][dN][Cha]NSF[azaGly]L[Arg(Me)]F-NH2)", "Specific Activity (intracellular Ca ion level-increasing activity)": 2}, {"compound": "CNC(=N)NCCC[C@H](NC(=O)[C@H](CC(C)C)NC(=O)CNC(=O)[C@H](Cc1ccccc1)NC(=O)[C@H](CO)NC(=O)[C@H](CC(N)=O)NC(=O)[C@@H](NC(=O)[C@H](CC(N)=O)NC(=O)[C@H](N)Cc1ccc(O)cc1)C(C)C)C(=O)N[C@@H](Cc1ccccc1)C(N)=O", "note": "[Compound No. 229] (H-[dY]NVNSFGL[Arg(Me)]F-NH2)", "Specific Activity (intracellular Ca ion level-increasing activity)": 1}, {"compound": "CNC(=N)NCCC[C@H](NC(=O)[C@H](CC(C)C)NC(=O)NNC(=O)[C@H](Cc1ccccc1)NC(=O)[C@H](CO)NC(=O)[C@H](CC(N)=O)NC(=O)[C@H](Cc1c[nH]c2ccccc12)NC(=O)[C@H](CC(N)=O)NC(=O)[C@H](N)Cc1cccnc1)C(=O)N[C@@H](Cc1ccccc1)C(N)=O", "note": "[Compound No. 258, D-Pya(3)-Asn-Trp-Asn-Ser-Phe-AzaGly-Leu-Arg(Me)-Phe-NH2] (H-[d3Pal]NWNSF[azaGly]L[Arg(Me)]F-NH2)", "Specific Activity (intracellular Ca ion level-increasing activity)": 2}, {"compound": "CC(C)C[C@H](NC(=O)CNC(=O)[C@H](Cc1ccccc1)NC(=O)[C@H](CO)NC(=O)[C@H](CC(N)=O)NC(=O)[C@H](Cc1c[nH]c2ccccc12)NC(=O)[C@H](CC(N)=O)NC(=O)[C@@H](N)Cc1ccc(O)cc1)C(=O)N[C@@H](CCCNC(=N)N)C(=O)N[C@@H](Cc1ccc(F)c(F)c1)C(N)=O", "note": "[Compound No. 198]", "Specific Activity (intracellular Ca ion level-increasing activity)": 10}, {"compound": "CC(C)C[C@H](NC(=O)CNC(=O)[C@H](Cc1ccccc1)NC(=O)[C@H](CO)NC(=O)[C@H](CC(N)=O)NC(=O)[C@H](Cc1c[nH]c2ccccc12)NC(=O)OCC1c2ccccc2-c2ccccc21)C(=O)N[C@@H](CCCNC(=N)N)C(=O)N[C@@H](Cc1ccccc1)C(N)=O", "note": "[Compound No. 54] (Fmoc-WNSFGLRF-NH2)", "Specific Activity (intracellular Ca ion level-increasing activity)": 5}, {"compound": "CNC(=N)NCCC[C@H](NC(=O)[C@H](CC(C)C)NC(=O)NNC(=O)[C@H](Cc1ccccc1)NC(=O)[C@H](CO)NC(=O)[C@H](CC(N)=O)NC(=O)[C@H](Cc1c[nH]c2ccccc12)NC(=O)[C@@H](CO)NC(=O)[C@H](N)Cc1ccc(O)cc1)C(=O)N[C@@H](Cc1ccccc1)C(N)=O", "note": "[Compound No. 287, D-Tyr-D-Ser-Trp-Asn-Ser-Phe-AzaGly-Leu-Arg(Me)-Phe-NH2] (H-[dY][dS]WNSF[azaGly]L[Arg(Me)]F-NH2)", "Specific Activity (intracellular Ca ion level-increasing activity)": 2}, {"compound": "CNC(=N)NCCC[C@H](NC(=O)[C@H](CC(C)C)NC(=O)NNC(=O)[C@H](Cc1ccccc1)NC(=O)[C@H](CO)NC(=O)[C@H](CC(N)=O)NC(=O)[C@H](Cc1c[nH]c2ccccc12)NC(=O)[C@H](CC(N)=O)NC[C@@H](N)Cc1ccc(O)cc1)C(=O)N[C@@H](Cc1ccccc1)C(N)=O", "note": "[Compound No. 299, TyrΨ(CH2NH)Asn-Trp-Asn-Ser-Phe-AzaGly-Leu-Arg(Me)-Phe-NH2] (H-[X10]WNSF[azaGly]L[Arg(Me)]F-NH2)", "Specific Activity (intracellular Ca ion level-increasing activity)": 5}]}]}
